Measured values published in patent publication US20190008797A1, “ESTROGEN RECEPTOR ALPHA COLIGANDS, AND METHODS OF USE THEREOF” (priority 2016, published 2019).

What was measured:
[1] = biological target: T1, hAR (Homo sapiens, UniProt P10275); test: TAT3-luciferase reporter, U2OS cells cotransfected with hAR; type: cell-based; conditions: 5 μM + 10 nM dihydrotestosterone, 24 hours
T1 construct: expressed in transfected cells; host or cells: U2OS
T1 sequence (P10275 1-920): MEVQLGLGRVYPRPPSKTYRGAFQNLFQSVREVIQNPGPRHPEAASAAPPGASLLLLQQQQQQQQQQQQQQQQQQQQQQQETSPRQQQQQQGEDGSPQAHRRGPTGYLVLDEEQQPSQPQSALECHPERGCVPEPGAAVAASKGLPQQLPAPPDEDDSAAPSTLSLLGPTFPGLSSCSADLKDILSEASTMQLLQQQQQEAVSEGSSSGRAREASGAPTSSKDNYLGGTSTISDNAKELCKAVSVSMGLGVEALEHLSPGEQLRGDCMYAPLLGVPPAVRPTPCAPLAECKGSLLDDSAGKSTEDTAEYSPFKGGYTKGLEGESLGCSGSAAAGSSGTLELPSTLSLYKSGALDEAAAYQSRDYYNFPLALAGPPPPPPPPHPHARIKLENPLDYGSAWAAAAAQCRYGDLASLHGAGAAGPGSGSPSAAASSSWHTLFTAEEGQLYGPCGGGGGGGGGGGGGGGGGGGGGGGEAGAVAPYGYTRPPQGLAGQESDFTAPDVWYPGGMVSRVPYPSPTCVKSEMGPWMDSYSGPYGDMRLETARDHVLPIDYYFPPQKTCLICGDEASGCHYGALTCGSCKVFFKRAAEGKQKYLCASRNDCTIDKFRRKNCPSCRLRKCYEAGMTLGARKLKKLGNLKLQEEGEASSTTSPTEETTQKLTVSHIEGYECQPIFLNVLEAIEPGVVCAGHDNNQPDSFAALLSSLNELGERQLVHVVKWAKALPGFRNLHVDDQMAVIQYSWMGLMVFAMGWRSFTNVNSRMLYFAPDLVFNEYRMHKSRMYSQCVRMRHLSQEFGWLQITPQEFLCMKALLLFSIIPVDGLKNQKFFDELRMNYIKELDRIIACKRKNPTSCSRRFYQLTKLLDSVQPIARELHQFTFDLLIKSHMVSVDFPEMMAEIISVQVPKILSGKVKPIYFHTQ

[2] = biological target: T2, hPR-B (Homo sapiens, UniProt P06401); test: TAT3-luciferase reporter, U2OS cells cotransfected with hPR-B; type: cell-based; conditions: 5 μM + 10 nM progesterone, 24 hours
T2 construct: expressed in transfected cells; host or cells: U2OS
T2 sequence (P06401 1-933): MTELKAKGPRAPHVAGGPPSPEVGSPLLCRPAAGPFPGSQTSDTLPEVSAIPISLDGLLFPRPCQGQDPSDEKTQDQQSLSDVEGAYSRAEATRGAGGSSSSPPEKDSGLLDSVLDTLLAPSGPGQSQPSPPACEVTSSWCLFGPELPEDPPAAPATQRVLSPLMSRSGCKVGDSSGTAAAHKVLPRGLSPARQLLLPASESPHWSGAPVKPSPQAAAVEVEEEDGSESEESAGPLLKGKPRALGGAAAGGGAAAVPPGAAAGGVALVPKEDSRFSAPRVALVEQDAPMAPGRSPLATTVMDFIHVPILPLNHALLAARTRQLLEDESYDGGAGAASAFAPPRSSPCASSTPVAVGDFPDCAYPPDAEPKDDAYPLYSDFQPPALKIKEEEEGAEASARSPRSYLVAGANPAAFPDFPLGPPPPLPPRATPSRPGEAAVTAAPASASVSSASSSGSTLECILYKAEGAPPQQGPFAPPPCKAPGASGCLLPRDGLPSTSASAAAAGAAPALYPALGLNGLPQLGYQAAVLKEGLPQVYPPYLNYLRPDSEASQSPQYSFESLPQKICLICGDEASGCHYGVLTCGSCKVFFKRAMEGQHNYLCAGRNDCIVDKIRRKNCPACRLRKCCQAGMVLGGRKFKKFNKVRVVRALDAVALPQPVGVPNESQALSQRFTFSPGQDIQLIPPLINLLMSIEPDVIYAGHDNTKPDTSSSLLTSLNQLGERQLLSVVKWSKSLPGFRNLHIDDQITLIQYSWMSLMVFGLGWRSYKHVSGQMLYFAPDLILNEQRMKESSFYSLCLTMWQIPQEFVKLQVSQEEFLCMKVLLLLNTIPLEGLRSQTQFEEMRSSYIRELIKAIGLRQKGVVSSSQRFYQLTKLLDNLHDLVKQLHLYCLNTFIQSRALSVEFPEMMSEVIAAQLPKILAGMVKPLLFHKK

[3] = biological target: T3, human glucocorticoid receptor (Homo sapiens, UniProt P04150); test: GRE-TK-Luc reporter, U2OS cells cotransfected with hGR; type: cell-based; conditions: 5 μM + 10 nM dexamethasone, 24 hours
T3 construct: expressed in transfected cells; host or cells: U2OS
T3 sequence (P04150 1-777): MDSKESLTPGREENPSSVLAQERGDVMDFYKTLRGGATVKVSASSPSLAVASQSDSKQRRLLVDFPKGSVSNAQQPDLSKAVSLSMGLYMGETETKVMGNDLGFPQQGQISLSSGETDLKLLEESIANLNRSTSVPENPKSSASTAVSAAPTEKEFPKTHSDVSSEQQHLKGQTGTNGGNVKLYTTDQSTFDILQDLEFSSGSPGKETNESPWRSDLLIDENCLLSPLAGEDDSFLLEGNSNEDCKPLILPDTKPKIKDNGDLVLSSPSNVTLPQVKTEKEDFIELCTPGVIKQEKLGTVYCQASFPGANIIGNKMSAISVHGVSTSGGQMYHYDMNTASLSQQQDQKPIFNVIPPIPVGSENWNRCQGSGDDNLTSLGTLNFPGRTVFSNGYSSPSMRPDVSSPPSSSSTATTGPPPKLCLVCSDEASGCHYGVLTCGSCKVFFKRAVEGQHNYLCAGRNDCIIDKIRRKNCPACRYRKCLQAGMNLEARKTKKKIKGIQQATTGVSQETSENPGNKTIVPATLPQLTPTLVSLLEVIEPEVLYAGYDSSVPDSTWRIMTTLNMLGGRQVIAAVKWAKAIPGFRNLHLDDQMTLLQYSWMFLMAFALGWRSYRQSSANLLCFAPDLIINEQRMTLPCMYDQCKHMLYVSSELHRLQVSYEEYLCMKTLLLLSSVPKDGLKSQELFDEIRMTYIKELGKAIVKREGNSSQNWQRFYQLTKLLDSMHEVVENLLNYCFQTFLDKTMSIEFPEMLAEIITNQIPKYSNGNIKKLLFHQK

[4] = biological target: T4, ERβ (Homo sapiens, UniProt Q92731); test: ERE-tk luciferase transfection assay, U2OS cells cotransfected with ERβ; type: cell-based
T4 construct: expressed in transfected cells; host or cells: U2OS
T4 sequence (Q92731 whole entry): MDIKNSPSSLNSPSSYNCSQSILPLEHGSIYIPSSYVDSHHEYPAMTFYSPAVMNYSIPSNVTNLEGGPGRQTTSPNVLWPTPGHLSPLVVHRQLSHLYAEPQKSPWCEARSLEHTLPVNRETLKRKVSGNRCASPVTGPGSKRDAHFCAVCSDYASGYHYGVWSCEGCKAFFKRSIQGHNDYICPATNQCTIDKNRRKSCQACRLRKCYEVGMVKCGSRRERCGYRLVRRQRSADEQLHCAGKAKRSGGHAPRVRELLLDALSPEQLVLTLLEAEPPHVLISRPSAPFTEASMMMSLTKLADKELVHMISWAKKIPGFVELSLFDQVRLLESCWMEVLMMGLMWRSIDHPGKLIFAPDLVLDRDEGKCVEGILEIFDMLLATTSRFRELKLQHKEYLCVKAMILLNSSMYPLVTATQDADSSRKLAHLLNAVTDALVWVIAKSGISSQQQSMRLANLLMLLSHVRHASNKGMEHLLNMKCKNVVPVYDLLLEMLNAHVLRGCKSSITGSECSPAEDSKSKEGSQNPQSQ

[5] = test system: MCF-7 cells; test: KRT19 mRNA RT-QPCR in MCF-7 cells; conditions: 5 μM + 10 nM E2, 4 hours

O=C(/C=C/c1ccccc1)c1ccc(O)c(O)c1O [2′, 3′, 4′-THC, 2′, 3′, 4′-trihydroxychalcone]
synergy with receptor agonist [1]: no synergy | synergy with receptor agonist [2]: no synergy | synergy with receptor agonist [3]: no synergy | luciferase activity with E2 ([4]; ERβ, 5 μM + 10 nM E2, 24 hours): synergistic increase | activity on ERE luciferase, compound alone ([4]; U2OS cells transfected with ERβ, 5 μM, 24 hours): inactive | effect on E2 activation of the KRT19 gene [5]: did not have a significant effect
